{
  "source": "ChEMBL document CHEMBL1201862",
  "about": "“PubChem BioAssay data set” (2004)",
  "assay_in_all_cases": "NCI anticancer screen, dose series, 48 h",
  "key": {"[1]": {"test_system": "A498"}, "[2]": {"test_system": "SK-MEL-2"}, "[3]": {"test_system": "MOLT-4"}, "[4]": {"test_system": "OVCAR-3"}, "[5]": {"test_system": "SK-OV-3"}, "[6]": {"test_system": "M14"}, "[7]": {"test_system": "786-0"}, "[8]": {"test_system": "T47D"}, "[9]": {"test_system": "SK-MEL-5"}, "[10]": {"test_system": "UO-31"}, "[11]": {"test_system": "Malme-3M"}, "[12]": {"test_system": "SNB-19"}, "[13]": {"test_system": "COLO 205"}, "[14]": {"test_system": "SF-539"}, "[15]": {"test_system": "CCRF-CEM"}, "[16]": {"test_system": "NCI-H460"}, "[17]": {"test_system": "Hs-578T"}, "[18]": {"test_system": "RXF 393"}, "[19]": {"test_system": "MDA-MB-435"}, "[20]": {"test_system": "MDA-N"}, "[21]": {"test_system": "NCI/ADR-RES"}, "[22]": {"test_system": "K562"}, "[23]": {"test_system": "NCI-H226"}, "[24]": {"test_system": "U-251"}, "[25]": {"test_system": "ACHN"}, "[26]": {"test_system": "OVCAR-4"}, "[27]": {"test_system": "SF-295"}, "[28]": {"test_system": "HCT-15"}, "[29]": {"test_system": "SN12C"}, "[30]": {"test_system": "NCI-H23"}, "[31]": {"test_system": "MCF7"}, "[32]": {"test_system": "SNB-75"}, "[33]": {"test_system": "IGROV-1"}, "[34]": {"test_system": "SK-MEL-28"}, "[35]": {"test_system": "EKVX"}, "[36]": {"test_system": "UACC-257"}, "[37]": {"test_system": "HL-60"}, "[38]": {"test_system": "SF-268"}, "[39]": {"test_system": "OVCAR-5"}, "[40]": {"test_system": "RPMI-8226"}, "[41]": {"test_system": "KM12"}, "[42]": {"test_system": "HOP-92"}, "[43]": {"test_system": "HCC 2998"}, "[44]": {"test_system": "OVCAR-8"}, "[45]": {"test_system": "PC-3"}, "[46]": {"test_system": "TK-10"}, "[47]": {"test_system": "DU-145"}, "[48]": {"test_system": "BT-549"}, "[49]": {"test_system": "SW-620"}, "[50]": {"test_system": "LOX IMVI"}, "[51]": {"test_system": "HCT-116"}, "[52]": {"test_system": "MDA-MB-231"}, "[53]": {"test_system": "NCI-H522"}, "[54]": {"test_system": "A549"}, "[55]": {"test_system": "HOP-62"}, "[56]": {"test_system": "SR"}, "[57]": {"test_system": "UACC-62"}, "[58]": {"test_system": "HT-29"}},
  "note": "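A five-concentration, 48-hour dose response in 96-well plates underlies each endpoint, interpolated linearly between surrounding concentrations. GI50 marks 50% less growth.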 Active and inactive are the calls of the source. Cut-off read from the data, not from the text of the source: active = GI50 up to about 1.1 µM and inactive = higher.",
  "data": [
    {"molecule": "COC(=O)C1C(O)C(C)C(O)C(C)(O)C=C(C)C2=C3C(=C(C)C(=O)c4c(O)c(c(C)c(OC(C)=O)c43)NC(=O)C(C)=C/C=C\\C(C)(O)C(O)C(C)C1O)OCO2", "note": "(stereo not drawn)", "values": [
      {"measurement": "GI50", "setting": "[1]", "result": "> 100 µM (inactive)"},
      {"measurement": "GI50", "setting": "[2]", "result": "22.9 µM (inactive)"},
      {"measurement": "GI50", "setting": "[3]", "result": "67.6 µM (inactive)"},
      {"measurement": "GI50", "setting": "[4]", "result": "25.7 µM (inactive)"},
      {"measurement": "GI50", "setting": "[5]", "result": "> 100 µM (inactive)"},
      {"measurement": "GI50", "setting": "[6]", "result": "43.6 µM (inactive)"},
      {"measurement": "GI50", "setting": "[7]", "result": "> 100 µM (inactive)"},
      {"measurement": "GI50", "setting": "[8]", "result": "67.9 µM (inactive)"},
      {"measurement": "GI50", "setting": "[9]", "result": "18.3 µM (inactive)"},
      {"measurement": "GI50", "setting": "[10]", "result": "91.6 µM (inactive)"},
      {"measurement": "GI50", "setting": "[11]", "result": "33.7 µM (inactive)"},
      {"measurement": "GI50", "setting": "[12]", "result": "> 100 µM (inactive)"},
      {"measurement": "GI50", "setting": "[13]", "result": "24.4 µM (inactive)"},
      {"measurement": "GI50", "setting": "[14]", "result": "> 100 µM (inactive)"},
      {"measurement": "GI50", "setting": "[15]", "result": "49.8 µM (inactive)"},
      {"measurement": "GI50", "setting": "[16]", "result": "> 100 µM (inactive)"},
      {"measurement": "GI50", "setting": "[17]", "result": "> 100 µM (inactive)"},
      {"measurement": "GI50", "setting": "[18]", "result": "> 100 µM (inactive)"},
      {"measurement": "GI50", "setting": "[19]", "result": "33.9 µM (inactive)"},
      {"measurement": "GI50", "setting": "[20]", "result": "40.3 µM (inactive)"},
      {"measurement": "GI50", "setting": "[21]", "result": "> 100 µM (inactive)"},
      {"measurement": "GI50", "setting": "[22]", "result": "81.1 µM (inactive)"},
      {"measurement": "GI50", "setting": "[23]", "result": "> 100 µM (inactive)"},
      {"measurement": "GI50", "setting": "[24]", "result": "> 100 µM (inactive)"},
      {"measurement": "GI50", "setting": "[25]", "result": "> 100 µM (inactive)"},
      {"measurement": "GI50", "setting": "[26]", "result": "56.4 µM (inactive)"},
      {"measurement": "GI50", "setting": "[27]", "result": "> 100 µM (inactive)"},
      {"measurement": "GI50", "setting": "[28]", "result": "> 100", "unit": "µM"},
      {"measurement": "GI50", "setting": "[29]", "result": "94 µM (inactive)"},
      {"measurement": "GI50", "setting": "[30]", "result": "> 100 µM (inactive)"},
      {"measurement": "GI50", "setting": "[31]", "result": "41.3 µM (inactive)"},
      {"measurement": "GI50", "setting": "[32]", "result": "> 100 µM (inactive)"},
      {"measurement": "GI50", "setting": "[33]", "result": "55.6 µM (inactive)"},
      {"measurement": "GI50", "setting": "[34]", "result": "> 100 µM (inactive)"},
      {"measurement": "GI50", "setting": "[35]", "result": "> 100 µM (inactive)"},
      {"measurement": "GI50", "setting": "[36]", "result": "28.9 µM (inactive)"},
      {"measurement": "GI50", "setting": "[37]", "result": "25.2 µM (inactive)"},
      {"measurement": "GI50", "setting": "[38]", "result": "75.2 µM (inactive)"},
      {"measurement": "GI50", "setting": "[39]", "result": "> 100 µM (inactive)"},
      {"measurement": "GI50", "setting": "[40]", "result": "45.4 µM (inactive)"},
      {"measurement": "GI50", "setting": "[41]", "result": "80.2 µM (inactive)"},
      {"measurement": "GI50", "setting": "[42]", "result": "24.7 µM (inactive)"},
      {"measurement": "GI50", "setting": "[43]", "result": "57.4 µM (inactive)"},
      {"measurement": "GI50", "setting": "[44]", "result": "> 100 µM (inactive)"},
      {"measurement": "GI50", "setting": "[45]", "result": "32.5 µM (inactive)"},
      {"measurement": "GI50", "setting": "[46]", "result": "> 100 µM (inactive)"},
      {"measurement": "GI50", "setting": "[47]", "result": "> 100 µM (inactive)"},
      {"measurement": "GI50", "setting": "[48]", "result": "> 100 µM (inactive)"},
      {"measurement": "GI50", "setting": "[49]", "result": "40.8 µM (inactive)"},
      {"measurement": "GI50", "setting": "[50]", "result": "35.3 µM (inactive)"},
      {"measurement": "GI50", "setting": "[51]", "result": "35.5 µM (inactive)"},
      {"measurement": "GI50", "setting": "[52]", "result": "32.5 µM (inactive)"},
      {"measurement": "GI50", "setting": "[53]", "result": "88.3 µM (inactive)"},
      {"measurement": "GI50", "setting": "[54]", "result": "88.9 µM (inactive)"},
      {"measurement": "GI50", "setting": "[55]", "result": "> 100 µM (inactive)"},
      {"measurement": "GI50", "setting": "[56]", "result": "49.4 µM (inactive)"},
      {"measurement": "GI50", "setting": "[57]", "result": "53.8 µM (inactive)"},
      {"measurement": "GI50", "setting": "[58]", "result": "62.2 µM (inactive)"}
    ]}
  ]
}
